In patent US10519133B2, “Vinyl compounds as FGFR and VEGFR inhibitors” (MEDSHINE DISCOVERY INC., priority 2015, dated 2019):

Legend:
[1] = test system: FGFR1/2 Highly Expressed Patient-derived Liver Tumor Transplantation Model; test: Tumor growth inhibition (TGI) analysis; assay type: in vivo, mice; conditions: BID
Experimental: The evolutionary growth potential of tumors was evaluated by the relationship between tumor volume and time. The long axis (L) and short axis (W) of the subcutaneous tumor were measured twice a week by the caliper and the tumor volume (TV) was calculated by the formula ((L×W^2)/2). TGI was calculated from the difference between the median tumor volume in the solvent group mice and the median tumor volume in the drug group mice, expressed as a percentage counting for the median tumor volume in the solvent control group, calculated by the following formula: % TGI=((median tumor volume(control)−median tumor volume(dosing group))/median tumor volume(control group))×100
The original statistical analysis was done by repeating the analysis of variance, followed by Scheffe psot hoc experimental method for multiple comparisons, with solvent alone (0.5% methylcellulose+0.2% Tween in water) as negative control.

SNU-16 cell = test: CellTiter-Glo Luminescent Cell Viability Assay; assay type: cell-based; conditions: Homo sapiens, 72 h; SNU-16 cells, 3 days; read-out: SNU-16 IC50 (CellTiter-Glo Detection)
Experimental: To detect the change of intracellular ATP by CellTiter-Glo® Luminescent Cell Viability Assay, and to evaluate the inhibitory effect of the compounds on in vitro cell SNU-16 using IC50 value of the compounds as an indicator.
Cell line: SNU-16 cell strain d. Diluting SNU-16 with medium, adding the diluted cells to the 384 plate (Greiner. 781090) (50 μL/well, SNU-16 cell 750 cells/well) with multi-channel pipette. Placing the cell plate in a 37° C., 5% CO2 incubator overnight. […]
g. Diluting the compound with DMSO to 10 mM, 3-fold dilution, 11 gradients, duplicate wells. h. Transferring 2.4 ul of the compound to the middle plate added with 47.6 ul of cell culture media at Bravo Automatic Liquid Station. Then transferring 5 ul to the cell culture plate (55 ul) to ensure the final DMSO concentration to be 0.4%. […]
i. Placing the cell culture plate in 5% CO2 incubator at 37° C. to continue cultivating for 3 days. d. Balancing Cell Titer Glo Reagent to room temperature e. Taking 30 ul of Cell Titer Glo Reagent in a 1:2 ratio into each well and gently mixing for 2 minutes f. Placing the cell culture plate in an incubator (23° C.) for 10 minutes, taking out and centrifuging at 1000 rpm for 1 minute g. Reading on Envision (Perkin Elmer) Plate Reader.
H. Analyzing Data: Analyzing the Data Using XLFIT (IDBS) and Calculating IC50 Values for the Compounds.

FGFR1 = molecular target: T1, FGFR1 (Homo sapiens, UniProt P11362); test: Z′-LYTE Detection Kinase Assay, in vitro enzymatic activity; assay type: biochemical; conditions: 0.6 nM FGFR1, 2 uM Tyr4 peptide, 10 uM ATP, 60 min 23° C.
T1 construct: purchased Invitrogen PV4105
T1 sequence (P11362 22-822): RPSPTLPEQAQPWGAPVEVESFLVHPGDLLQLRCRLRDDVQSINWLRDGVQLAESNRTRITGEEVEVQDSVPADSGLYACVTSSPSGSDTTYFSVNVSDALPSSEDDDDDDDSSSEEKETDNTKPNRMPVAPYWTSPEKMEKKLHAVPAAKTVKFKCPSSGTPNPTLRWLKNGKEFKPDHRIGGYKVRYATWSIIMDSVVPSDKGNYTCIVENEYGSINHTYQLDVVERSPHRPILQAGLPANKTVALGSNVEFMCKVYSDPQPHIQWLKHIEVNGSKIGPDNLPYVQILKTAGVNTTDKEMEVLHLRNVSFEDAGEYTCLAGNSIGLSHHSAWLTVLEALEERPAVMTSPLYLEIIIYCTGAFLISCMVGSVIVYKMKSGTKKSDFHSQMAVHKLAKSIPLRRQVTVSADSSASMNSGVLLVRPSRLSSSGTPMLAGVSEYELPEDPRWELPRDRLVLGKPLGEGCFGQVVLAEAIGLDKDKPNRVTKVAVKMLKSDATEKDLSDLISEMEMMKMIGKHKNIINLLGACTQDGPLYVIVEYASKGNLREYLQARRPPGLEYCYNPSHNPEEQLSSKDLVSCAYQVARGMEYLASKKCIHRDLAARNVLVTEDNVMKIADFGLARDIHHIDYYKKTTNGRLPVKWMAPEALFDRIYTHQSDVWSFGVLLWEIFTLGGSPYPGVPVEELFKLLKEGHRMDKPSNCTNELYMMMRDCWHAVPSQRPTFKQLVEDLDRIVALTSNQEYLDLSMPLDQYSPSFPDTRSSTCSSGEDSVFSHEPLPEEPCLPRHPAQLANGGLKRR
Experimental: To measure enzyme activity by Z′-LYTE™ Detection Kinase Assay, and to evaluate the inhibitory effect of the compounds on FGFR1 using IC50 value of the compounds as an indicator. […]
Reaction Buffer: 50 mM Hepes (pH 7.5), 10 mM MgCl2, 1 mM EGTA, 0.01% Brij-35, 1 mM DTT, 2 mM MnCl2 0.6 nM FGFR1, 2 uM Tyr4 peptide and 10 uM ATP in reaction buffer (50 mM Hepes, pH 7.5, 10 mM MgCl2, 0.01% BRIJ-35, 1 mM EGTA, 4 mM MnCl2, 2 mM DTT). a. Diluting the compounds with DMSO to 10 mM, 3-fold dilution, 11 gradients, duplicate wells. b. Diluting the compound by 1:25 into middle plate at Bravo Automatic Liquid Station, then transferring 2.5 ul to the reaction plate to ensure the final DMSO concentration to be 1%. c. Transferring 5 ul of enzyme/substrate buffer into each well d. Using Multidrop Liquid Workstation to sequentially add ATP solution to each well e. Centrifuging at 1000 rpm for 1 minute f. Placing the reaction plate in an incubator at 23° C. to react for 60 min. a. Preparing a 1:128 mixture of Development Regent B and Development Buffer b. Adding 5 ul to each well and centrifuging at 1000 rpm for 1 minute c. Placing the reaction plate in a thermostat (23° C.) after centrifuging for 90 minutes, removing and reading on Envision (Perkin Elmer) Plate Reader
D. Analyzing Data: Analyzing Data Using XLFIT (IDBS) and Calculating IC50 Values for the Compounds.

in vivo = conditions: female, Balb/c nude, mouse, po, 2 mg/kg
Experimental: (§1) Experimental Procedure: A clear solution of the test compound in 20% DMSO/60% PEG400/20% water at 0.4 mg/ml was administered by intragastric administration to female Balb/c nude mice (fasted overnight, 7-9 weeks of age) with a dose of 2 mg/kg. About 30 μL of blood was collected from the jugular vein or caudal vein at 0.25, 0.5, 1.0, 2.0, 4.0, 8.0 and 24 h after administration in both groups of animals, placed in anticoagulation tube with EDTA-K2 and the plasma was centrifuged. Plasma concentrations were determined by LC-MS/MS and related pharmacokinetic parameters were calculated using the non-compartmental model linear logarithmic trapezoidal method using WinNonlin™ Version 6.3 (Pharsight, Mountain View, Calif.) pharmacokinetic software.

[2] = female, Balb/c nude, mouse, in vivo, 2 mg/kg
Experimental: as §1

Compound	IC50 (FGFR1) [nM]	TGI % (last administration) ([1]; 15 mg/kg) [%]	further results
CC(Oc1ccc2[nH]nc(/C=C(\F)c3ccc(CN4CCOCC4)nc3)c2c1)c1c(Cl)cncc1Cl (stereo not drawn) [Example 16]	10 to 50	84.5	IC50 (SNU-16 cell): ≤ 10 nM
CC(Oc1ccc2[nH]nc(/C=C/c3ccc(CN4CCOCC4)nn3)c2c1)c1c(Cl)cncc1Cl (stereo not drawn) [Example 54]	≤ 10		TGI % (last administration) ([1]; 10 mg/kg): 85.4%
CC(Oc1ccc2[nH]nc(/C=C/c3ccc(CN4CCOCC4)cc3)c2c1)c1c(Cl)cncc1Cl (stereo not drawn) [WX_063]			AUC(0-t) (in vivo): 0.221 ± 0.0713 µM·h; Cmax (in vivo): 214 ± 39.7 nM; peak time [2]: 0.25 h

More lines, main results first:

IC50 (FGFR1) [nM]	Compound	TGI % (last administration) ([1]; 15 mg/kg) [%]	further results
≤ 10	C[C@@H](Oc1ccc2[nH]nc(/C=C(\F)c3ccc(CNC4CCOCC4)nc3)c2c1)c1c(Cl)cncc1Cl [Example 18]		TGI % (last administration) ([1]; 5 mg/kg): 85%
10 to 50	CC(Oc1ccc2[nH]nc(/C=C/c3ccc(CN4CCOCC4)cc3)c2c1)c1c(Cl)cncc1Cl (stereo not drawn) [Example 63]	86	
